Laboratory results from the supplement of paper PMC13207355.
Structures can show the parent of a compound that is named as a salt.

Legend:
Conditions in all cases: exposure time: 72 h
E28 [1] = patient-derived glioblastoma stem cells of classical subtype; experiment: phenotypic distance (Euclidean, principal components) from DMSO controls (arbitrary units); higher = stronger morphological change
E34 [2] = patient-derived glioblastoma stem cells of proneural subtype; experiment: as above
FT3469 [3] = normal neural stem cell line; experiment: as above
E57 [4] = patient-derived glioblastoma stem cells of mesenchymal subtype; experiment: as above
E13 [5] = patient-derived glioblastoma stem cells of classical subtype; experiment: as above
E31 [6] = patient-derived glioblastoma stem cells of proneural subtype; experiment: as above
E21 [7] = patient-derived glioblastoma stem cells of mesenchymal subtype; experiment: as above
E28 [8] = experiment: surviving fraction (nuclei count normalised to DMSO); higher = more cells surviving (less toxic)
E34 [9] = experiment: as above
FT3469 [10] = experiment: as above
E57 [11] = experiment: as above
E13 [12] = experiment: as above
E31 [13] = experiment: as above
E21 [14] = experiment: as above
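Throughout, for phenotypic distance (Euclidean, principal components) from DMSO controls: cell Painting imaging in 384-well plates, CellProfiler features reduced to at least 20 principal components, Euclidean distance versus same-plate DMSO vehicle wells (0.1% v/v), median over six images per well.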
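Throughout, for surviving fraction (nuclei count normalised to DMSO): nuclei counted by high-content imaging of Hoechst-stained cells in laminin-coated 384-well plates, relative to 0.1% DMSO vehicle wells, with staurosporine as cell-death control.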

CNCCCC12CCC(c3ccccc31)c1ccccc12 [Maprotiline hydrochloride]
Conditions	phenotypic distance	surviving fraction
E13 [5], 4.1 nM	0.553	–
E13 [5], 12.3 nM	0.296	–
E13 [5], 37 nM	0.356	–
E13 [5], 111.1 nM	0.55	–
E13 [5], 333.3 nM	0.608	–
E13 [5], 1000 nM	0.471	–
E13 [5], 3000 nM	0.392	–
E13 [12], 4.1 nM	–	0.984
E13 [12], 12.3 nM	–	1.05
E13 [12], 37 nM	–	0.987
E13 [12], 111.1 nM	–	1.05
E13 [12], 333.3 nM	–	1.1
E13 [12], 1000 nM	–	1.05
E13 [12], 3000 nM	–	0.911
E21 [7], 4.1 nM	0.674	–
E21 [7], 12.3 nM	1.04	–
E21 [7], 37 nM	0.745	–
E21 [7], 111.1 nM	1.03	–
E21 [7], 333.3 nM	0.9	–
E21 [7], 1000 nM	0.798	–
E21 [7], 3000 nM	0.546	–
E21 [14], 4.1 nM	–	1.04
E21 [14], 12.3 nM	–	0.944
E21 [14], 37 nM	–	0.982
E21 [14], 111.1 nM	–	1.06
E21 [14], 333.3 nM	–	1.02
E21 [14], 1000 nM	–	1.03
E21 [14], 3000 nM	–	1.06
E28 [1], 4.1 nM	0.756	–
E28 [1], 12.3 nM	0.57	–
E28 [1], 37 nM	0.744	–
E28 [1], 111.1 nM	0.651	–
E28 [1], 333.3 nM	0.753	–
E28 [1], 1000 nM	0.525	–
E28 [1], 3000 nM	0.615	–
E28 [8], 4.1 nM	–	1.23
E28 [8], 12.3 nM	–	0.929
E28 [8], 37 nM	–	0.979
E28 [8], 111.1 nM	–	1.21
E28 [8], 333.3 nM	–	1.13
E28 [8], 1000 nM	–	0.951
E28 [8], 3000 nM	–	0.979
E31 [6], 4.1 nM	0.322	–
E31 [6], 12.3 nM	0.404	–
E31 [6], 37 nM	0.529	–
E31 [6], 111.1 nM	0.826	–
E31 [6], 333.3 nM	0.77	–
E31 [6], 1000 nM	0.546	–
E31 [6], 3000 nM	0.55	–
E31 [13], 4.1 nM	–	1.07
E31 [13], 12.3 nM	–	1.06
E31 [13], 37 nM	–	1.02
E31 [13], 111.1 nM	–	0.859
E31 [13], 333.3 nM	–	1.18
E31 [13], 1000 nM	–	1.05
E31 [13], 3000 nM	–	1.01
E34 [2], 4.1 nM	0.824	–
E34 [2], 12.3 nM	0.524	–
E34 [2], 37 nM	0.568	–
E34 [2], 111.1 nM	1.03	–
E34 [2], 333.3 nM	0.644	–
E34 [2], 1000 nM	1.11	–
E34 [2], 3000 nM	0.788	–
E34 [9], 4.1 nM	–	1.04
E34 [9], 12.3 nM	–	0.869
E34 [9], 37 nM	–	0.875
E34 [9], 111.1 nM	–	1.01
E34 [9], 333.3 nM	–	1.02
E34 [9], 1000 nM	–	0.997
E34 [9], 3000 nM	–	1.07
E57 [4], 4.1 nM	0.339	–
E57 [4], 12.3 nM	0.804	–
E57 [4], 37 nM	0.81	–
E57 [4], 111.1 nM	0.882	–
E57 [4], 333.3 nM	0.422	–
E57 [4], 1000 nM	0.498	–
E57 [4], 3000 nM	0.628	–
E57 [11], 4.1 nM	–	1.06
E57 [11], 12.3 nM	–	1.12
E57 [11], 37 nM	–	1.09
E57 [11], 111.1 nM	–	1.1
E57 [11], 333.3 nM	–	0.986
E57 [11], 1000 nM	–	0.93
E57 [11], 3000 nM	–	1.09
FT3469 [3], 4.1 nM	0.707	–
FT3469 [3], 12.3 nM	0.982	–
FT3469 [3], 37 nM	0.677	–
FT3469 [3], 111.1 nM	1.1	–
FT3469 [3], 333.3 nM	0.895	–
FT3469 [3], 1000 nM	1.08	–
FT3469 [3], 3000 nM	0.56	–
FT3469 [10], 4.1 nM	–	1.09
FT3469 [10], 12.3 nM	–	1.18
FT3469 [10], 37 nM	–	1.3
FT3469 [10], 111.1 nM	–	1.07
FT3469 [10], 333.3 nM	–	0.901
FT3469 [10], 1000 nM	–	1.16
FT3469 [10], 3000 nM	–	0.869
